Ends that are not written are not given here. Peptide text beside a SMILES is read from it. * marks the point of attachment. FITC = O=C1OC2(c3ccc(O)cc3Oc3cc(O)ccc32)c2ccc(NC(=S)*)cc21; Palmitoyl = CCCCCCCCCCCCCCCC(=O)*; Ahx = NCCCCCC(=O)O
How the values were obtained:
HaCaT cells [1] = assay: Dependence of cell penetration on ATP (flow cytometry); assay type: cell-based, human; settings: pre-treated with 2-DG and NaN3
Description: (§1) HaCaT cells were inoculated at a concentration of 3×10^5 cells/well into a 6-well plate and incubated for 24 hours. Then, the cell culture medium was removed, followed by washing twice with HBSS, and replaced with an Opti-MEM medium. The cells were treated with 10 μM FITC-TAT, FITC-Spep001, FITC-Spep002 or FITC-Spep003 and incubated at 37° C. with 5% CO2 for 1 hour. […] Finally, the cells were treated with 1 mg/mL trypsin and thus separated into single cells, followed by centrifugation at 1,000 rpm for 5 minutes. The FITC fluorescence intensities of cell-penetrating peptides per living 10,000 cells were measured by performing flow cytometry (Navios Flow Cytometer by Beckman Coulter Life Sciences), and the result thereof is shown in FIG. 5A(i) to FIG. 5A(v) and FIG. 5B.
A test was conducted in the same conditions as those in Example 7 except that the cells were pre-treated with 2-DG (2-deoxyglucose, D6134, sigma) and NaN3 (sodium azide, 71289, sigma) one hour before treatment with FITC-TAT, FITC-Spep001, FITC-Spep002 or FITC-Spep003 to check the dependence of endocytosis on ATP. Then, the FITC fluorescence intensities of peptides penetrating into living cells were measured by flow cytometry as in Example 5, and the result thereof is shown in FIG. 7.

HaCaT cells [2] = assay: Cell penetration rate by flow cytometry; assay type: cell-based, human; settings: 10 μM, 37° C., 1 hour
Description: as §1

[3] = Cytotoxicity assay (WST-1, microscopy) in HaCaT cells; assay type: cell-based, human; settings: human, HaCaT cells (keratinocytes); for viability at 24 h, 25 µM / viability at 24 h, 50 µM / viability at 24 h, 100 µM / viability at 24 h, 200 µM: HaCaT, read-out: survival rate (WST-1); for viability at 24 h, 25 µM: 25 μM peptide; for viability at 24 h, 50 µM: 50 μM peptide; for viability at 24 h, 100 µM: 100 μM peptide; for viability at 24 h, 200 µM: 200 μM peptide
Description: (§2) Cytotoxicity of the cell-penetrating multifunctional peptide according to Example 1 was checked. Specifically, HaCaT cells (human keratinocytes) were inoculated at a concentration of 1.5×10^4 cells/well into a 96-well plate and incubated for 24 hours. Then, the medium was removed, followed by washing once with PBS, and replaced with a serum-free medium. The cells were treated with Spep001 (SEQ ID NO: 1), Spep002 (SEQ ID NO: 8) or Spep003 (SEQ ID NO: 9) at a concentration of 0 μM, 25 μM, 50 μM, 100 μM or 200 μM and then further incubated for 24 hours. Herein, culture conditions were maintained at 37° C. with 5% CO2.
(§3) At the time of completion of further incubation, the appearance of the cells were imaged by a microscope, and the result thereof is shown in FIG. 2A(i) to FIG. 2A(xx).
(§4) Also, at the time of completion of incubation, a WST-1 assay (Water Soluble Tetrazolium salt-1, EZ-assay kit, DoGenBio) was conducted. Specifically, 100 μL of a WST-1 solution was added to the well of cells after the completion of further incubation and then incubated for 3 hours. Thereafter, the absorbance at 450 nm was measured using a microplate spectrophotometer (Multiskan™ GO, thermo), and the result thereof is shown in FIG. 2B and Table 2 below.
(§5) Herein, all the result values are expressed in mean±standard deviation. The analysis result of each item was statistically analyzed by a 2-way analysis of variance (ANOVA) test. A Bonferroni post-test was conducted at a P value of *p<0.05 and **p<0.01 only when the significance was determined by ANOVA test. GraphPad prism 5.0.1 (GraphPad Software Inc., San Diego, CA, USA) was used as a statistical software program.

[4] = test system: HaCaT cells (human keratinocytes); assay: as above; assay type: cell-based
Description: as §2, §3, §4, §5

[5] = test system: HDF-N (human dermal fibroblast-neonatal) cells; assay: Cytotoxicity assay (WST-1, microscopy) in HDF-N cells; assay type: cell-based
Description: as §2, §4
(§6) The appearance of HDF-N (human dermal fibroblast-neonatal) cells were imaged by a microscope as in Example 3, and the result thereof is shown in FIG. 3A(i) to FIG. 3A(xx). However, the HDF-N cells were inoculated at a concentration of 1.0×10^4 cells/well into a 96-well plate.

[6] = as above; assay type: cell-based, human; settings: human, HDF-N cells (dermal fibroblasts, neonatal); for viability at 24 h, 25 µM / viability at 24 h, 50 µM / viability at 24 h, 100 µM / viability at 24 h, 200 µM: HDF-N, read-out: survival rate (WST-1); for viability at 24 h, 25 µM: 25 μM peptide; for viability at 24 h, 50 µM: 50 μM peptide; for viability at 24 h, 100 µM: 100 μM peptide; for viability at 24 h, 200 µM: 200 μM peptide
Description: as §2, §4, §6

HDF-N cells = assay type: cell-based, human
Description: as §2, §4
HDF-N cells were treated with 12.5 μM KTTKS (SEQ ID NO: 5), Spep001-KTTKS (SEQ ID NO: 6) and pal-KTTKS which are peptides fabricated in Example 9. The appearance and proliferation rate of the cells were measured as in Example 3, and the results thereof are shown in FIG. 9A(i) to FIG. 9A(iv), FIG. 9B and Table 7 below.

Row | Molecule | FITC fluorescence intensity under ATP deficiency (HaCaT cells [1]) | cell penetration rate (FITC-positive cell count) (HaCaT cells [2]) [%] | cell penetration rate based on TAT-FITC with a cell penetration rate of 100% (HaCaT cells [2]) [%] | viability at 24 h, 25 µM [3] [%] | viability at 24 h, 50 µM [3] [%] | viability at 24 h, 100 µM [3] [%] | viability at 24 h, 200 µM [3] [%] | viability at 24 h, 25 µM [6] [%] | viability at 24 h, 50 µM [6] [%] | viability at 24 h, 100 µM [6] [%] | viability at 24 h, 200 µM [6] [%] | other results
1 | FITC-Ahx-RKRWLRKPRP ({FITC-Ahx}-RKRWLRKPRP) [FITC-Spep003, Spep003 labelled with FITC at the N-terminal amine group] | decreased | 7.8 | 28.8 |  |  |  |  |  |  |  |  | 
2 | FITC-Ahx-KRRWRKIPKR ({FITC-Ahx}-KRRWRKIPKR) [FITC-Spep002, Spep002 labelled with FITC at the N-terminal amine group] | decreased | 6.3 | 23.3 |  |  |  |  |  |  |  |  | 
3 | RLRLRQRRRR [Spep001, RLRLRQRRRR] |  |  |  | 103 ± 1.62 | 103 ± 2.21 | 106 ± 2.23 | 110 ± 7.48 | 93.39 ± 0.66 | 101 ± 2.71 | 95 ± 1.53 | 94.5 ± 2.41 | viability at 24 h ([3]; at all concentrations (25-200 μM), read-out: survival rates of the HaCaT cells): ≥ 90%; cytotoxicity ([4]; HaCaT cells): do not express cytotoxicity; change in the appearance of the cells (microscope) ([4]; HaCaT, all concentrations): no change in the appearance; cytotoxicity ([5]; HDF-N cells): do not express cytotoxicity; change in the appearance of the cells (microscope) ([5]; HDF-N, all concentrations): no change in the appearance; viability at 24 h ([6]; at all concentrations (25-200 μM), read-out: survival rates of the HDF-N cells): ≥ 90%
4 | CCCCCCCCCCCCCCCC(=O)N[C@@H](CCCCN)C(=O)N[C@H](C(=O)N[C@H](C(=O)N[C@@H](CCCCN)C(=O)N[C@@H](CO)C(=O)O)[C@@H](C)O)[C@@H](C)O [Palmitoyl-KTTKS, Pal-KTTKS] (Palmitoyl-KTTKS-OH) |  |  |  |  |  |  |  |  |  |  |  | change in the appearance of the cells (microscope) (HDF-N cells): appearance of the cells treated with Pal-KTTKS was changed; Cell viability(%) (HDF-N cells; human, 24 h, 12.5 μM): 109.22%
5 | N=C(N)NCCC[C@H](NC(=O)[C@H](CCCNC(=N)N)NC(=O)[C@H](CCCNC(=N)N)NC(=O)[C@H](CCC(N)=O)NC(=O)[C@H](CCCNC(=N)N)NC(=O)[C@H](CCCNC(=N)N)NC(=O)[C@H](CCCCN)NC(=O)[C@H](CCCCN)NC(=O)[C@H](CCCNC(=N)N)NC(=O)CNC(=O)[C@@H](N)Cc1ccc(O)cc1)C(=O)O [TAT, YGRKRRQRRR, reference compound] |  |  |  | 102 ± 5.09 | 106.3 ± 1.05 | 106 ± 2.94 | 102 ± 2.15 | 106 ± 3.38 | 94.9 ± 4.22 | 103 ± 3.02 | 96.7 ± 5.03 | 
